Results as given in PMC4286326 (Journal of the American Chemical Society, 2014).
“And” between values parts separate entries of the source, which are not always exact repeats. Equal entries are not always repeated.

Columns and labels:
S31N mutant of M2 (A/M2) = S31N mutant of M2 (A/M2) (Influenza A virus, UniProt P0DOF5, S31N); assay type: biochemical; conditions: 100 µM
[1] = test system: M2-S31N-expressing A/WSN/33; assay type: cell-based, influenza A virus; conditions: read-out: A/WSN/33 (S31N) EC50

| SMILES | % S31N inhibition (S31N mutant of M2 (A/M2)) | EC50 [1] [µM] |
| --- | --- | --- |
| NC12CC3CC(CC(C3)C1)C2 [Compound 1, amantadine, reference compound] | 36% | 22.5 |
| Brc1ccc(CNC23CC4CC(CC(C4)C2)C3)s1 [Compound 11, N-[(5-bromothiophen-2-yl)methyl]adamantan-1-amine] | 76% and 76/N.T. % | 1.8 |
